# From US20180296630A1, “METHODS AND COMPOSITIONS FOR PREVENTING OR TREATING OPHTHALMIC CONDITIONS” (Stealth BioTherapeutics Corp, priority 2012, published 2018)
# What was measured:
# [1] = test system: STZ diabetic rats with intraocular ischemia/reperfusion; experiment: Efficacy Pharmacological Test 1: diabetic rats, intraocular ischemia/reperfusion, visual cell layer edema
# [2] = test system: primary human retinal pigment epithelial (RPE) cells; experiment: Viability of primary RPE cells exposed to tBHP (MTT); format: cell-based; conditions: preincubated 4 h with different concentrations, then tBHP 6 h
# Protocol: Next, the viability of primary RPE cells was tested in the presence of tBHP and various concentrations of D-Arg-2′,6′-Dmt-Lys-Phe-NH2. Cells were plated at 10,000 cells per well in a 96-well plate and cultured for 24 h, then starved for 24 h. After that, cells were exposed to increasing concentrations of tBHP (FIG. 23A), or preincubated for 4 h with different concentrations of D-Arg-2′,6′-Dmt-Lys-Phe-NH2, then stimulated with tBHP for 6 h (FIG. 23B). […] Intracellular ROS production in three groups of RPE cells was also examined using FACS analysis. […] Three different concentration of D-Arg-2′,6′-Dmt-Lys-Phe-NH2 groups were analyzed. The ratio of red to green in 500 μM tBHP for the 3 h group is 1.08, the ratio of red to green in 10 nM D-Arg-2′,6′-Dmt-Lys-Phe-NH2 for 4 h+500 tBHP for 3 h group is 1.25; the ratio of red to green in 100 nM D-Arg-2′,6′-Dmt-Lys-Phe-NH2 for 4 hr+500 μM tBHP for 3 h group is 1.4; and the ratio of red to green in 1 μM D-Arg-2′,6′-Dmt-Lys-Phe-NH2 for 4 h+500 μM tBHP for 3 h group is […]. […] FIG. 33A: Control group, R/G is 3.63±0.24; FIG. 33B: 500 μM tBHP for 3 h group, R/G is 1.08±0.11; FIG. 33C: 1 μM D-Arg-2′,6′-Dmt-Lys-Phe-NH2 for 4 h+500 μM tBHP for 3 h group, R/G is 2.38±0.18. FIG. 33D is a chart comparing the fluorescence ratio for the different groups. *P<0.01, C vs. B.
# STZ diabetic rats = experiment: Lens opacity (cataract) in STZ rat model; format: in vivo, Sprague-Dawley rat; conditions: 10 mg (Table 11: 10 mg/kg s.c.)
# Protocol: A rat model of diabetes was established by combination of 6-week HFD and low dose of STZ (30 mg/kg) injection or a single high dose of STZ (65 mg/kg) in SD rats. See generally, K. Srinivasan, B. Viswanad, Lydia Asrat, C. L. Kaul and P. Ramarao, Combination of high-fat diet-fed and low-dose streptozotocin-treated rat: A model for type 2 diabetes and pharmacological screening, Pharmacological Research, 52(4): 313-320, 2005. Rats of the same batch fed with normal chow (NRC) were used as a control.
# GTM and HTM cells = experiment: Cell apoptosis induced by H2O2 (percentage of cells in Q2+Q4); format: cell-based, human; conditions: FIG. 38
# Excerpt: FIG. 38A-38D are graphs showing cell apoptosis of control and D-Arg-2′,6′-Dmt-Lys-Phe-NH2(SS-31)-treated groups valued by percentage of cells in the Q2+Q4 quadrant.
# The percentage of intracellular ROS production compared to GTM control in GTM H2O2, D-Arg-2′,6′-Dmt-Lys-Phe-NH2 10^−6M, D-Arg-2′,6′-Dmt-Lys-Phe-NH2 10^−7M, D-Arg-2′,6′-Dmt-Lys-Phe-NH2 10^−8M groups were 146.0±2.27%, 84.5±8.75%, 102.0±5.69%, 133.0±5.17% respectively (n=3); the HTM groups were 153.0±3.46%, 79±2.39%, 91.8±3.49%, 129.0±8.24% respectively (n=4). P<0.001 GTM and HTM H2O2 Group compared to control; *** means P<0.001 compared to GTM H2O2 group; ▴ ▴ ▴ Means P<0.001 compared to HTM H2O2 group; ▴ ▴ means P<0.01 compared to HTM H2O2 group.
# [3] = test system: human retinal epithelial cells (HREC); experiment: Mitochondrial membrane potential of high-glucose HRECs (JC-1, flow cytometry); format: cell-based; conditions: 100 nM co-treatment with high glucose; 24 or 48 hours
# Protocol: Assessment of D-Arg-2′,6′-Dmt-Lys-Phe-NH2 as a protectant against mitochondrial potential loss of HRECs treated with high-glucose was examined. To determine if a mitochondrial-mediated pathway was important in the protective effect of D-Arg-2′,6′-Dmt-Lys-Phe-NH2 against high glucose-induced cell death, ΔΨm was measured by flow cytometry. After treating the HRECs with high-glucose without D-Arg-2′,6′-Dmt-Lys-Phe-NH2 for 24 or 48 hours, a rapid loss of mitochondrial membrane potential was detected by JC-1 fluorescent probe as indicated by a significant decrease in the ratio of red to green fluorescence observed in the high glucose group.
substance,measurement,setting,value
"D-Arg-2′,6′-Dmt-Lys-Phe-NH2",loss of nuclei in the inner retinal layer,[1]; compared to the diabetic control group,"absent, or much diminished"
same,edema of the visual cell layer after ischemia/reperfusion,"[1]; diabetic groups, oral, parenteral or eye drops twice per day",no edema or very low levels of edema
same,cell viability in response to tBHP,[2],enhanced
same,"Opacity degree ++++, number in group",STZ diabetic rats,1
same,"Opacity degree +++, number in group",STZ diabetic rats,0
same,"Opacity degree ++, number in group",STZ diabetic rats,0
same,"Opacity degree +, number in group",STZ diabetic rats,2
same,"Opacity degree −, number in group",STZ diabetic rats,2
same,Percentage of opacity,STZ diabetic rats,60.0%
same,Percentage of severe opacity,STZ diabetic rats,20.0%
same,amount of cell apoptosis induced by H2O2,GTM and HTM cells,reduced
same,Δψm (ratio of red to green JC-1 fluorescence),[3],remained virtually unchanged
